Assay results from patent US20240108637A1, “EPITE[…] AND/OR A STEROID SULFATASE INHIBITOR FOR USE IN TREATING OR IMPROVING AGE RELATED COGNITIVE IMPAIRMENT” (U[…] DE OLAVIDE, priority 2020, published 2024).
“Also recorded” adds a separate entry of the source.

What was measured:
[1] = system: C. elegans; assay: Lifespan assays in C. elegans; type: in vivo, Caenorhabditis elegans
Protocol: F2 L4 animals were shifted to 25° C. (t=0). ES treatment started at L4 stage, control and treated plates were prepared fresh and animals transferred each three days until death. Animals lost or dead by non-physiological causes were censured. Survival curves were generated using the product-limit method of Kaplan and Meier. The log-rank (Mantel-Cox) test was used to evaluate differences in survival and […] lower than 0.05 were considered significant.

[2] = system: polyglutamine repeats fused to YFP (Q40 background, strain AM141); assay: Huntington neurodegenerative model: number of polyglutamine aggregates; type: in vivo, C. elegans; details: 1 μg/ml, 5-day old worms
[3] = system: GMC101 strain expressing human β-amyloid in muscle; assay: Alzheimer's disease model: thermodependent paralysis of GMC101 strain; type: in vivo, C. elegans; details: 1 μg/ml, FIG. 3h, FIG. 4b
Description: (§1) In this model, GFP-labelled dopaminergic neurons die due to α-synuclein toxicity. […] We also tested two different strains of Alzheimer's disease (AD) in worms, where immobility is caused by expression of βA protein in muscle cells.

[4] = system: CL2006 strain expressing human β-amyloid in muscle; assay: Alzheimer's disease model: paralysis with age of CL2006 strain; type: in vivo, C. elegans; details: Log-rank (Mantel-Cox) test p=0.007, FIG. 12g
Description: as §1

[5] = system: daf-2(e1370); assay: Developmental arrest (dauer / L1) at 25° C.; type: in vivo, C. elegans; details: daf-2(e1370) background
Protocol: Worms were growth at 16° C. until L4, then shifted to 25° C. considering this Day 0 of adulthood. The pumping was counted under the Leica stereoscope at 100× magnification for 30 seconds. Data display from two independent biological assays (n=30 per day). Two-tailed Mann-Whitney t-test, ***p=0.0006. e Thrashing in sul-2(gk187) is similar to wild type but is slightly lower in sul-2 (pv17) at 25° C. on day 1 of adulthood. On day 6 at 25° of adulthood, the trashing on sul-2(gk187) is lower than wild type and sul-(pv17), with no differences among these last strains. The population of sul-2(gk17) at day 6 seems to distribute into two different populations, one with almost no thrashing and other with values similar to wild type a sul-2(pv17). […] In this condition, all animals from daf-2(e1370); sul-2(pv17) double mutants arrest at L1 stage. Similarly, more than 50% of animals arrest in L1 stage in daf-2(m577); sul-2(pv17) background, while none of the single mutants show this phenotype. i Example of sul-2(pv17) larvae, dauer larval arrest of daf-2(e1370) or L1 arrest of daf-2(e1370); sul-2 (pv17) and daf-2(e1370); sul-2(gk187) at 25° C. Animals were grown up to L4 at 16° C., then shifted at 25° C., progeny were scored or imaged after 72 hours. Photographs were taken in a Leica scope.

[6] = system: wild type mice injected with β-amyloid oligomers in the hippocampus; assay: Passive avoidance test after intrahippocampal βA oligomers infusion (acute AD model); type: in vivo
Description: (§2) As STX64 ameliorated neurodegeneration in C. elegans models, we tested the effect of this drug on cognitive alterations provoked by intrahippocampal βA oligomers infusion, an acute AD mammalian model (FIG. 3i). […] To evaluate the effect of STX64 oral treatment on amyloid pathology in a chronic AD mice model, we assessed the effect of 3-4 weeks of STX64 oral treatment on amyloid deposition in the neocortex (the cerebral cortex and the hippocampus) of >15-month-old APP-PS1 mice (FIG. 4k). […] We wondered if this histological improvement correlated with amelioration of cognitive behavioural deficit. For that, we compared cognition capacities in APP-PS1 mice older than 15-month-old treated with vehicle or STX64 for 3-4 weeks.
(§3) The first, object recognition, after training with identical objects, tests the ability to identify different objects exposed together with a familiar one. When this happens, the object discrimination index is positive and higher than 0.1. […] For this purpose, during training, the entry latency to the preferred site is established and the aversive stimulus is administered.

[7] = system: APP-PS1 mice; assay: β-amyloid deposition in frontal cortex and hippocampus (chronic AD model); type: in vivo; details: 3-4 weeks oral
Description: as §2

[8] = system: APP-PS1 mice; assay: Passive avoidance test in APP-PS1 mice; type: in vivo; details: APP-PS1 mice older than 15-month-old; 3-4 weeks oral
Description: as §2, §3

[9] = system: aged mice; assay: Cognition of aged mice under STX64 treatment (FIG. 16-19, headline); type: in vivo
[10] = system: aged mice; assay: Object recognition test in aged mice; type: in vivo
Protocol: as §3

[11] = system: aged mice; assay: Passive avoidance test in aged mice (STM and LTM); type: in vivo
Protocol: as §3
During short- and long-term memory tests (STM and LTM) if the mouse associated the preferred place to the aversive stimulus, the input latency increases with respect to training.

[12] = system: 16-month-old mice; assay: Open Field test; type: in vivo; details: FIG. 20; for habituation ability: aged animals, Open Field 15 minutes
Protocol: (§4) The “Open Field” is a test where the mouse must explore an unknown space for 15 minutes. In this test, both mobility and habituation (cognitive parameter that measures the individual's ability to recognize the environment) can be studied. On the other hand, the “Y maze” test is a test where the mouse explores the maze for 6 minutes. This test evaluates the distance traveled as a measure of mobility and the ability to visit triplets of arms without repeating any of them as a sign of immediate memory.

[13] = system: 16-month-old mice; assay: Y maze test; type: in vivo; details: aged animals, Y maze 6 minutes, FIG. 20
Protocol: as §4

[14] = aged mice, vs vehicle-treated, FIG. 21, listed as STX

NS(=O)(=O)Oc1ccc2c3c(c(=O)oc2c1)CCCCC3 [STX64]
dependence of the increase of longevity on daf-36 ([1]; daf-36 mutant, 1 μg/ml, FIG. 2m): daf-36 is necessary for the increase of longevity; also recorded: DAF-36 is required for the longevity
lifespan ([1]; sul-2 (gk187) deletion background, 1 μg/ml, UV-killed E. coli, FIG. 1D): does not further increase the longevity
lifespan ([1]; wild type animals, 1 μg/ml, UV-killed E. coli, FIG. 1D): increases lifespan
longevity ([1]; wild type animals, text statement (FIG. 1d, FIG. 7a-c)): increase in longevity; also recorded: extends lifespan
lifespan ([1]; wild type, non-UV E. coli, FIG. 7a): increases lifespan of wild type
number of polyglutamine aggregates [2]: aggregates are reduced; also recorded: reduced the number of aggregates
paralysis phenotype [3]: the paralysis phenotype is ameliorated; also recorded: delayed paralysis
paralysis with age [4]: delayed paralysis; also recorded: ameliorated
L1 arrest [5]: phenocopies other sul-2 mutant phenotypes; also recorded: mainly arrests in L1
L1 arrest ([5]; listed as STX 64): increase of L1 arrest
cognitive deficiencies, passive avoidance test ([6]; local (intrahippocampal) administration): reverted the cognitive deficiencies
cognitive deficiencies, passive avoidance test ([6]; systemic (oral) administration): reverted the cognitive deficiencies
βA deposition compared with un-treated APP-PS1 mice of 10-12 months of age ([7]; APP-PS1 mice older than 15 months): reduces βA deposition
βA immunoreactive area ([7]; frontal cortex and hippocampus, >15-month-old APP-PS1 mice): reduced in both tissues
βA plaque density ([7]; frontal cortex and hippocampus, >15-month-old APP-PS1 mice, 0.005 mg/ml in drink water): significant reduction
βA plaque size ([7]; frontal cortex, >15-month-old APP-PS1 mice, 0.005 mg/ml in drink water): significant reduction
cognitive deficiencies, passive avoidance test [8]: completely reverted cognitive deficiencies
cognition ([9]; 1-month treatment in 18 months old mice, 19 months when assayed, FIG. 18): improves cognition
cognition ([9]; 3-month treatment in 18 months old mice, 21 months when assayed, FIG. 19): improves cognition
cognition ([9]; 3 months treatment in 15 months old mice, FIG. 16): improves cognition
cognition ([9]; 6 months treatment in 15 months old mice, 21 months when assayed, FIG. 17): improves cognition
object recognition ([10]; 3-month treatment in 18 months old mice, FIG. 19B): is improved
object recognition ([10]; 3 months treatment in 15 months old mice, FIG. 16B): is improved
object recognition ([10]; 6 months treatment in 15 months old mice, FIG. 17B): is improved
learning and memory, object recognition test [10, 14]: showed significantly both learning (STM) and ability to store information (memory); also recorded: significant improvement in both learning (STM) and ability to store information (memory)
short term and long-term memory in passive avoidance test ([11]; 1-month treatment in 18 months old mice, FIG. 18B): significant improvement
learning (STM) and memory (LTM), passive avoidance test [11, 14]: showed significantly both learning (STM) and ability to store information (memory); also recorded: significant improvement in both learning (STM) and ability to store information (memory)
motor ability (mobility) ([12]; 16-month-old mice, Open Field mobility and Y maze distance traveled): tend to improve
habituation ability [12]: tend to improve
habituation ability ([12]; listed as STX): are improved
immediate memory [13]: tend to improve
immediate memory ([13]; listed as STX): are improved
